Source: patent publication US20010047099A1, “4-aminopicolinates and their use as herbicides” (priority 2000, published 2001)
Values belong to the molecule of their own block, whether it stands above or below them.

Columns and labels:
[1] = tested on: velvetleaf (Abutilon theophrasti); test: Preemergence herbicidal activity; type: in vivo; conditions: Table 6 (headed Post-emergent; text: preemergence), after 3 weeks
In short: (§1)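 Percent injury or lack of germination was judged by eye against untreated pots at 3 weeks, where 100 means complete kill. Before emergence, seeded 70:30 loam-sand soil received a surface spray of compound in water with 0.1% Tween 155 (acetone/DMSO carrier); greenhouse 15 h photoperiod, about 22-29° C.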

[2] = tested on: pigweed (Amaranthus retroflexus); test: Preemergence herbicidal activity; type: in vivo; conditions: Table 6 (headed Post-emergent; text: preemergence), after 3 weeks
In short: as §1

[3] = tested on: morningglory (Ipomoea hederacea); test: Preemergence herbicidal activity; type: in vivo; conditions: Table 6 (headed Post-emergent; text: preemergence), after 3 weeks
In short: as §1

[4] = tested on: wheat (Triticum aestivum); test: Postemergence herbicidal activity, selectivity to wheat; type: in vivo; conditions: Table 5; crop (wheat); rate 125 ppm
Experimental: Seeds of the desired test plant species were planted in Grace-Sierra MetroMix® 306 planting mixture, which typically has a pH of 6.0 to 6.8 and an organic matter content of about 30 percent, in plastic pots with a surface area of 64 square centimeters. When required to ensure good germination and healthy plants, a fungicide treatment and/or other chemical or physical treatment was applied. The plants were grown for 7-21 days in a greenhouse with an approximate 15 hr photoperiod which was maintained at about 23-29° C. during the day and 22-28° C. during the night. Nutrients and water were added on a regular basis and supplemental lighting was provided with overhead metal halide 1000-Watt lamps as necessary. The plants were employed for testing when they reached the first or second true leaf stage.
A weighed amount, determined by the highest rate to be tested, of each test compound was placed in a 20 mL glass vial and was dissolved in 4 mL of a 97:3 v/v (volume/volume) mixture of acetone and dimethyl sulfoxide (DMSO) to obtain concentrated stock solutions. […] The concentrated stock solutions obtained were diluted with an aqueous mixture containing acetone, water, isopropyl alcohol, DMSO, Atplus 411F crop oil concentrate, and Triton X-155 surfactant in a 48.5:39:10:1.5:1.0:0.02 v/v ratio to obtain spray solutions of known concentration. The solutions containing the highest concentration to be tested were prepared by diluting 2 mL aliquots of the stock solution with 13 mL of the mixture and lower concentrations were prepared by serial dilution of the stock solution. Approximately 1.5 mL aliquots of each solution of known concentration were sprayed evenly onto each of the test plant pots using a DeVilbiss atomizer driven by compressed air pressure of 2 to 4 psi ([…]) to obtain thorough coverage of each plant. Control plants were sprayed in the same manner with the aqueous mixture. In this test an application rate of 1 ppm results in the application of approximately 1 g/Ha.
The treated plants and control plants were placed in a greenhouse as described above and watered by sub-irrigation to prevent wash-off of the test compounds. After 2 weeks the condition of the test plants as compared with that of the untreated plants was determined visually and scored on a scale of 0 to 100 percent where 0 corresponds to no injury and 100 corresponds to complete kill.

[5] = tested on: Canada thistle (Cirsium arvense); test: Range & Pasture Crop Testing (postemergence track sprayer); type: in vivo; conditions: for Post-emergent Evaluation - % control CIRAR: Table 9, rate 70 g/Ha, 3 weeks after treatment
Experimental: (§2) By applying the well-accepted probit analysis as described by J. Berkson in Journal of the […], 48, 565 (1953) and by D. Finney in “Probit Analysis” Cambridge University Press (1952), the above data can be used to calculate GR50 and GR80 values, which are defined as growth reduction factors that correspond to the effective dose of herbicide required to kill or control 50 percent or 80 percent, respectively, of a target plant.
(§3) Rates are calculated based upon 5 doses being applied. The high rate (X), followed by serial dilutions of 1/2×, 1/4×, 1/8× and 1/16×. Compound requirements are based upon the 187 L/ha carrier volume, specifications of the delivery system (Mandel track sprayer) and generating 24 mL of technical spray material to allow for the dilutions and overage in the sprayer. [formula]
(§4) All technical materials were formulated in 97:3 (acetone:DMSO) with 0.25% X-77. The total volume of solvent is maintained at less than 7%. An overhead Mandel track sprayer calibrated to deliver 187 L/ha was used for all treatment applications (postemergence). Picloram was included as a comparison treatment.
(§5) Solutions were applied with a mechanized track-sprayer at the following settings:
(§6) Spray height: 17 inches above top of plants
(§7) This provides an application volume of 187 L/ha.
(§8) Percent weed control (burn down) was evaluated 3 weeks after treatment. Visual control on a 0-100 linear scale was used, with 0 representing no control and 100 representing total control. Burn down ratings were taken for annual and perennial weed species.

[6] = tested on: lambsquarters (Chenopodium album); test: Postemergence herbicidal activity; type: in vivo; conditions: Table 5; rate 125 ppm
In short: (§9)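 Spray rate conversion: 1 ppm ≈ 1 g/Ha. The test used greenhouse seedlings (first/second true leaf) treated with a serially diluted compound spray. Control plants received carrier only. Efficacy was taken as visual injury at 2 weeks on a 0–100% scale.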

[7] = tested on: cocklebur (Xanthium strumarium); test: Postemergence herbicidal activity; type: in vivo; conditions: Table 1, rate 125 ppm, visual, after 2 weeks
In short: as §9

[8] = tested on: wild buckwheat (Polygonum convolvulus); test: Postemergence herbicidal activity; type: in vivo; conditions: rate 125 ppm
In short: as §9

[9] = tested on: chickweed (Stellaria media); test: Postemergence herbicidal activity; type: in vivo; conditions: rate 125 ppm
In short: as §9

[10] = tested on: crested wheatgrass (Agropyron cristatum) (grass crop); test: Range & Pasture Crop Testing (postemergence track sprayer); type: in vivo; conditions: Table 9, rate 70 g/Ha, 3 weeks after treatment
Experimental: as §3, §4, §5, §6, §7, §8

[11] = tested on: broadleaf dock (Rumex obtusifolia); test: as above; type: in vivo; conditions: Table 9; rate 70 g/Ha; 3 weeks after treatment
Experimental: as §3, §4, §5, §6, §7, §8

[12] = tested on: common ragweed (Ambrosia artemisiifolia); test: as above; type: in vivo; conditions: Table 9; rate 70 g/Ha; 3 week evaluation
Experimental: as §3, §4, §5, §6, §7, §8

[13] = tested on: White Clover (Trifolium repens); test: Range & Pasture Crop Testing (postemergence track sprayer); type: in vivo; conditions: Table 10
Experimental: as §2, §3, §4, §5, §6, §7, §8

[14] = tested on: field bindweed (Convolvulus arvensis); test: as above; type: in vivo
Experimental: as §2, §3, §4, §5, §6, §7, §8

[15] = tested on: sicklepod (Cassia obtusifolia); test: as above; type: in vivo; conditions: Table 8; salts of Compound 1; dose for 80 percent control
Experimental: as §2, §3, §4, §5, §6, §7, §8

[16] = Table 10, clover pasture, postemergence

Molecule: 4-Amino-3,6-dichloro-5-methylthiopyridine-2-carboxylic acid [Compound 23]
% Control ABUTH ([1]; rate 560 ppm): 40% | % Control AMARE ([2]; rate 560 ppm): 40% | % Control IPOHE ([3]; rate 560 ppm): 0% | Post-emergent Evaluation - % control TRZAS [4]: 20% | Post-emergent Evaluation - % control CIRAR [5]: 80% | Post-emergent Evaluation - % control CHEAL [6]: 90% | Post-emergent % Control XANST [7]: 90% | Post-emergent % Control POLCO ([8]; Table 1, visual, after 2 weeks): 98% | Post-emergent Evaluation - % control POLCO ([8]; Table 5): 98% | Post-emergent % Control STEME ([9]; Table 1, visual, after 2 weeks): 90% | Post-emergent Evaluation - % control STEME ([9]; Table 5): 30% | Post-emergent Evaluation - % control AGRCR [10]: 30% | Post-emergent Evaluation - % control RUMOB [11]: 100% | Post-emergent Evaluation - % control AMBEL [12]: 85%

melting point: 114 to 115 °C
Molecule: CC(C)OC(=O)c1nc(Cl)cc(N)c1Cl [Compound 6, i-propyl 4-amino-3,6-dichloropyridine-2-carboxylate]
pest or weed control at 280 ppm ([1]; Abutilon theophrasti, 504 h, rate 280 ppm, read-out: % Control ABUTH): 100% | pest or weed control at 280 ppm ([2]; Amaranthus retroflexus, 504 h, rate 280 ppm, read-out: % Control AMARE): 100% | pest or weed control at 280 ppm ([3]; Ipomoea, 504 h, rate 280 ppm, read-out: % Control IPOHE): 100% | GR20 TRFRE [13]: 98.8 g/ha | Post-emergent Evaluation - % control CIRAR [5]: 95% | GR80 CIRAR [5, 16]: <17.5 g/ha | GR80 CONAR [14, 16]: 98.8 g/ha | pest or weed control at 125 ppm ([7]; Xanthium strumarium, post-emergence, 336 h, read-out: Post-emergent % Control XANST): 100% | pest or weed control at 125 ppm ([8]; Fallopia convolvulus, post-emergence, 336 h, Table 1, visual, after 2 weeks, read-out: Post-emergent % Control POLCO): 100% | pest or weed control at 125 ppm ([9]; Stellaria media, post-emergence, 336 h, Table 1, visual, after 2 weeks, read-out: Post-emergent % Control STEME): 100% | Post-emergent Evaluation - % control AGRCR [10]: 30% | Post-emergent Evaluation - % control RUMOB [11]: 100% | Post-emergent Evaluation - % control AMBEL [12]: 93%

Molecule: Nc1cc(Cl)nc(C(=O)[O-])c1Cl.[K+] [potassium salt]
Post-emergent GR80 CASOB [15]: <8.8 g/Ha | Post-emergent GR80 CIRAR ([5]; Table 8, salts of Compound 1, 3 week evaluation): 27 g/Ha | Post-emergent GR80 CONAR ([14]; Table 8, salts of Compound 1, dose for 80 percent control): 36 g/Ha
